The values below come from patent US5468756A, “Imidazonaphthyridine derivatives” (Kyowa Hakko Kogyo Co., Ltd., priority 1990, dated 1995).

The test system of one data set is ddY strain male mice. The data set can be described thus: Acute toxicity (Minimum Lethal Dose). The format is in vivo. The procedure: The test compound was orally and intraperitoneally administered to ddY strain male mice weighing 20 to 25 g. MLD (Minimum Lethal Dose) was determined by observing the mortality for […] after the administration.
The test system of data set [1] is carrageenin-induced paw edema. The data set can be described thus: Effect on carrageenin-induced paw edema. Format: in vivo, male Wistar rats. The settings on record: Rattus norvegicus, 3 hours after carrageenin, read-out: Suppression rate for paw swelling, carrageenin-induced edema; for inhibition in vivo at 100 mg/kg: p.o.; for inhibition in vivo at 50 mg/kg: po, 50 mg/kg P.O. The procedure: a) Effect on carrageenin-induced paw edema
(§1) Male Wistar rats weighing 150 to 160 g (n=3-5) were used in the experiment. After the right hind paw volume was measured with the plethysmograph (TK-101; Unicom Co., Ltd.), the test compound (25, 50 or 100 mg/kg) was orally administered. After one hour, 0.1 ml of 1% carrageenin (λ-carrageenin; PICNIN-A®, Zushi Kagaku Co., Ltd.) was subcutaneously injected into the right hind paw footpad. Three hours after the injection of carrageenin, the right hind paw volume was measured and the swelling rate was determined by the following equation 1. [formula] Vt: the right hind paw volume measured 3 hours after the injection of carrageenin
(§2) Vo: the right hind paw volume measured prior to the injection of carrageenin
(§3) The suppression rate was calculated by the following equation 2. [formula] Swt: the swelling rate of the group administered with the test compound Swc: the swelling rate of the control group administered with physiological saline solution
Background: In the carrageenan paw model, swelling and tenderness develop within hours.

The subject of data set [2] is platelet activating factor (PAF)-induced mortality. As to the kind of experiment: Inhibition effect on platelet activating factor (PAF)-induced mortality. The settings on record: Mus musculus, po, PAF 40 μg/kg i.v., 3 h, read-out: Survival rate of test compound-administered group; for responders at 100 mg/kg: n = 10, control group survival 0-20%. Format: in vivo, male dd mice. The procedure: e) Inhibition effect on platelet activating factor (PAF)-induced mortality
The experiment was carried out by a minor modification of a known method [Br. J. Pharmacol., 79, 595 (1983)]. Groups each consisting of 10 male dd mice (weighing 28 to 32 g) were used, and 50 or 100 mg/kg of the test compound or a saline (control) was orally administered. One hour after the administration of test compound, 40 μg/kg of PAF (manufactured by Avanti Polar Lipids Co., Ltd.) was intravenously administered. Three hours after PAF injection, the mortality of the animals was observed.

The subject of data set [3] is passive Schultz-Dale reaction. As to the kind of experiment: Effect on passive Schultz-Dale reaction (broncho-dilative activity), sensitized tracheal strips contracted by antigen. Details: species or system male Hartley guinea pigs. The settings on record: guinea pig tracheal zig-zag strips, 37° C., antigen egg white albumin 1 μg/ml; read-out: Passive Schultz-Dale reaction IC50 (concentration of 50% relaxation rate). Here is the method:
d) Effect on passive Schultz-Dale reaction (broncho-dilative activity)
Male Hartley guinea pigs weighing 350 to 500 g were passively sensitized by intraperitoneal injection of rabbit anti-OA serum prepared in advance by the method of Koda et al. [Folia Pharmacol., Japon 66, 237, (1970)]. After 24 hours, the guinea pigs were stunned and exsanguinated, and then tracheae were removed. The zig-zag strips of the tracheae were prepared by the method of Emmerson and Mackay [J. Pharm. Pharmacol., 31, 798, (1979)]. The strips were suspended in Krebs-Henseleit solution at 37° C. under aeration of a mixed gas of 95% oxygen and 5% carbon dioxide, and equilibrated for one hour. Then, antigen (egg white albumin) was introduced in the solution (final concentration; 1 μg/ml), and the contraction was measured by isotonictransducer (TD-112s, made by Nihon Kohden K.K., Japan) and recorded on a recorder (Type 3066, made by Yokogawa-Hokushin Denki, K.K. Japan). After the contraction curves reached a plateau, the test compounds were successively added in order to get cumulative concentration-relaxation curves. The concentration of 50% relaxation rate (IC50) was calculated from the regression line, which was obtained from the cumulative concentration-relaxation curves.

In data set [4] the test system is zymosan-induced paw edema. As to the kind of experiment: Effect on zymosan-induced paw edema. Format: in vivo, male Wistar rats. The settings on record: Rattus norvegicus, po, read-out: Suppression rate for paw swelling, zymosan-induced edema; for inhibition in vivo at 25 mg/kg: 25 mg/kg P.O. Here is the method: as §1, §2, §3
b) Effect on zymosan-induced paw edema
The experiment was carried out in the same manner as in the carrageenin-induced paw edema test except that 1% zymosan (Zymosan A®; Sigma Chemical Co.) was used in place of 1% carrageenin and the right hind paw volume was measured […] the injection of the edema-inducing substance instead of 3 hours. The swelling rate and the suppression rate were calculated by equation 1 and equation 2, respectively.

In the case of `CCn1cnc2c3cccnc3n(-c3ccccc3)c(=O)c21` [Compound 8, 3-Ethyl-5-phenyl-3H-imidazo[4,5-c][1,8]naphthyridin-4(5H)-one], in the data set with ddY strain male mice, the “MLD (Minimum Lethal Dose) i.p.” value was more than 50 mg/kg and the “MLD (Minimum Lethal Dose) p.o.” value is more than 50 mg/kg. The inhibition in vivo at 100 mg/kg in data set [1] turned out to be 56.1%. Moreover, the responders at 100 mg/kg in data set [2] stood at 70%. Further, the IC50 in data set [3] was 0.45 µM. Moreover, in data set [4], the inhibition in vivo at 100 mg/kg came to 64.9%.

Take `CCCn1cnc2c3cccnc3n(-c3ccccc3)c(=O)c21` [Compound 9, 5-Phenyl-3-n-propyl-3H-imidazo[4,5-c][1,8]naphthyridin-4(5H)-one]: in the data set on ddY strain male mice, the “MLD (Minimum Lethal Dose) i.p.” value is more than 100 mg/kg and the “MLD (Minimum Lethal Dose) p.o.” value is recorded as more than 100 mg/kg. Also, the inhibition in vivo at 100 mg/kg in data set [1] is 52.4%. The responders at 100 mg/kg in data set [2] was determined as 100%. Further, in data set [3], the IC50 came to 6.5 µM. Also, in data set [4], the inhibition in vivo at 25 mg/kg was 61.2%.

For `CC(C)n1cnc2c3cccnc3n(-c3ccccc3)c(=O)c21` [Compound 10, 3-Isopropyl-5-phenyl-3H-imidazo[4,5-c][1,8]naphthyridin-4(5H)-one], the “MLD (Minimum Lethal Dose) i.p.” value in the data set on ddY strain male mice is more than 100 mg/kg. Further, the “MLD (Minimum Lethal Dose) p.o.” value with ddY strain male mice is listed as more than 100 mg/kg. The inhibition in vivo at 100 mg/kg in data set [1] was 43.1%; in data set [4], 53%. In addition, the responders at 100 mg/kg in data set [2] was 80%. The IC50 in data set [3] was 6 µM.

As to `Cc1nc2c([nH]1)c(=O)n(-c1ccccc1)c1ncccc21` [Compound 18, 2-Methyl-5-phenyl-3H-imidazo[4,5-c][1,8]naphthyridin-4(5H)-one], the inhibition in vivo at 100 mg/kg in data set [1] was 23.7%. Moreover, the responders at 100 mg/kg in data set [2] was determined as 90%. Besides, the IC50 in data set [3] is more than 10 µM. The inhibition in vivo at 25 mg/kg in data set [4] amounted to 26.7%.

For the compound `COc1ccc(-n2c(=O)c3[nH]cnc3c3cccnc32)cc1` [Compound 22, 5-(4-Methoxy)phenyl-3H-imidazo[4,5-c][1,8]naphthyridin-4(5H)-one], the inhibition in vivo at 100 mg/kg in data set [1] stood at 1.9%; in data set [4], 0%. The responders at 100 mg/kg in data set [2] was 30%. Moreover, in data set [3], the IC50 was more than 10 µM.

As to `COc1cccc(-n2c(=O)c3[nH]cnc3c3cccnc32)c1` [Compound 23, 5-(3-Methoxy)phenyl-3H-imidazo[4,5-c][1,8]naphthyridin-4(5H)-one], the inhibition in vivo at 100 mg/kg in data set [1] is 0%. For the same compound, the responders at 100 mg/kg in data set [2] turned out to be 10%. In addition, the IC50 in data set [3] was more than 10 µM. Further, the inhibition in vivo at 25 mg/kg in data set [4] turned out to be 18.1%.

In the case of `CCCCn1c(=O)c2c(ncn2C)c2cccnc21` [Compound 28, 5-n-Butyl-3-methyl-3H-imidazo[4,5-c][1,8]naphthyridin-4(5H)-one], the inhibition in vivo at 100 mg/kg in data set [1] stood at 20.6%. In addition, the responders at 100 mg/kg in data set [2] is 70%. The IC50 in data set [3] is 4.5 µM. In addition, the inhibition in vivo at 25 mg/kg in data set [4] is 26.7%.

With `O=c1c2c(ncn2CC2CCCCC2)c2cccnc2n1-c1ccccc1` [Compound 37, 3-Cyclohexylmethyl-5-phenyl-3H-imidazo[4,5-c][1,8]naphthyridin-4(5H)-one], in data set [1], the inhibition in vivo at 50 mg/kg amounted to 34.7%. In addition, the responders at 100 mg/kg in data set [2] was found to be 90%. In addition, in data set [3], the IC50 is 6.2 µM. Also, in data set [4], the inhibition in vivo at 25 mg/kg was 49.8%.

Take `Cc1cccc(Cn2cnc3c4cccnc4n(-c4ccccc4)c(=O)c32)c1` [Compound 41, 3-(3-Methylphenyl)methyl-5-phenyl-3H-imidazo[4,5-c][1,8]naphthyridin-4(5H)-one]: the inhibition in vivo at 100 mg/kg in data set [1] was 47.7%. Besides, the responders at 50 mg/kg in data set [2] (50 mg/kg p.o., n = 10, control group survival 0%) was determined as 80%. Moreover, the IC50 in data set [3] came out at 10 µM. The inhibition in vivo at 25 mg/kg in data set [4] is 33.3%.

On to `O=c1c2c(ncn2Cc2ccccc2)c2cccnc2n1-c1cccc(Cl)c1` [Compound 59, 5-(3-Chlorophenyl)-3-benzyl-3H-imidazo[4,5-c][1,8]naphthyridin-4(5H)-one], for which, in the data set with ddY strain male mice, the “MLD (Minimum Lethal Dose) i.p.” value was more than 100 mg/kg and the “MLD (Minimum Lethal Dose) p.o.” value is given as more than 300 mg/kg. Moreover, the inhibition in vivo at 50 mg/kg in data set [1] amounted to 36.4%. Also, the responders at 100 mg/kg in data set [2] was 70%. In addition, in data set [4], the inhibition in vivo at 25 mg/kg was 47.9%.
